Key:
[1] = target: native H3 receptors from rat cerebral cortices (Rattus norvegicus (Rat), UniProt Q9QYN8); assay: H3 receptor competition binding with [3H]-N-α-methylhistamine, rat cerebral cortex membranes; conditions: [3H]-N-α-methylhistamine competition binding
Protocol: Aliquots were frozen at −70° C. until needed.
Membrane preparations were incubated with [^3H]-N-α-methylhistamine (0.5-1.0 nM) in the presence or absence of increasing concentrations of ligands for H3 receptor competition binding. The binding incubations were conducted in a final volume of 0.5 mL TE buffer at 25° C. and were terminated after 30 minutes. Thioperamide (30 μM) was used to define non-specific binding. All binding reactions were terminated by filtration under vacuum onto polyethylenimine (0.3%) presoaked Unifilters (Perkin Elmer Life Sciences) or Whatman GF/B filters followed by three brief washes with 2 mL of ice-cold TE buffer. Bound radiolabel was determined by liquid scintillation counting. For all of the radioligand competition binding assays, IC50 values and Hill slopes were determined by Hill transformation of the data and pKi values were determined by the Cheng-Prusoff equation.

[2] = system: locomotor stimulation induced by amphetamine; conditions: animals; Clapham J., et al. 1994; cited from earlier work

native H3 receptors from rat cerebral cortices, sequence (Q9QYN8 whole entry): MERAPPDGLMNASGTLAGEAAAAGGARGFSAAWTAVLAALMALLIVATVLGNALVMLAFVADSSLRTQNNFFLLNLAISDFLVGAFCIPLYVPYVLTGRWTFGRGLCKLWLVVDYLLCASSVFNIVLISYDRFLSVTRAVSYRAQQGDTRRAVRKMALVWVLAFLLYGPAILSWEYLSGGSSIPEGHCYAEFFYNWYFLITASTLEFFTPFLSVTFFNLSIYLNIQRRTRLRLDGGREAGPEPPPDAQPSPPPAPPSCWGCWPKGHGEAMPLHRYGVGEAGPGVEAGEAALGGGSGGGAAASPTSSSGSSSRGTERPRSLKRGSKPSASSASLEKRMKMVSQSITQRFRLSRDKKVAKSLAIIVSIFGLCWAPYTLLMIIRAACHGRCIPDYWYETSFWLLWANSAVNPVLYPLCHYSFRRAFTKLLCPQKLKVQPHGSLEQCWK

| SMILES | Ki [1] [nM] | rat cortex (pKi) [1] | effect on amphetamine-induced locomotor stimulation [2] |
| --- | --- | --- | --- |
| CC1=C(c2ccc(OCCCN3CCCCC3)cc2)SC2=NCc3ccccc3CN21 [Example 2, 3-methyl-2-[4-(3-piperidin-1-ylpropoxy)phenyl]-5,10-dihydro[1,3]thiazolo[3,2-b][2,4]benzodiazepine] | 0.05 | 10.3 |  |
| CC1=C(c2ccc(OCCCN3CCC[C@H]3C)cc2)SC2=NCc3ccccc3CN21 [Example 3, 3-methyl-2-(4-{3-[(2R)-2-methylpyrrolidin-1-yl]propoxy}phenyl)-5,10-dihydro[1,3]thiazolo[3,2-b][2,4]benzodiazepine] | 0.02 | 10.7 |  |
| CC1=C(c2ccc(OCCCN3CCOCC3)cc2)SC2=NCc3ccccc3CN21 [Example 4, 3-methyl-2-[4-(3-morpholin-4-ylpropoxy)phenyl]-5,10-dihydro[1,3]thiazolo[3,2-b][2,4]benzodiazepine] | 0.324 | 9.49 |  |
| S=C(NC1CCCCC1)N1CCC(c2cnc[nH]2)CC1 [thioperamide] |  |  | suppresses the locomotor stimulation induced by amphetamine |

From patent US9181275B2, “Mercaptoamidine derivatives and methods of use” (AbbVie Inc., priority 2011, dated 2015)
